Results on 24 compounds are retold here after US8563730B2, “Pyrazole and fused pyrazole glucokinase activators” (Takeda San Diego, Inc., priority 2008, dated 2013).

This assay concerns the target T1, GK (glucokinase, residues 12-465) (Homo sapiens, UniProt P35557).
T1 construct: I.D. No. 1 corresponds to residues 12-465 of glucokinase; made in house; host or cells: DH10b-T1r E. coli
T1 sequence (P35557 with tags, fused parts or gaps isoform P35557-2): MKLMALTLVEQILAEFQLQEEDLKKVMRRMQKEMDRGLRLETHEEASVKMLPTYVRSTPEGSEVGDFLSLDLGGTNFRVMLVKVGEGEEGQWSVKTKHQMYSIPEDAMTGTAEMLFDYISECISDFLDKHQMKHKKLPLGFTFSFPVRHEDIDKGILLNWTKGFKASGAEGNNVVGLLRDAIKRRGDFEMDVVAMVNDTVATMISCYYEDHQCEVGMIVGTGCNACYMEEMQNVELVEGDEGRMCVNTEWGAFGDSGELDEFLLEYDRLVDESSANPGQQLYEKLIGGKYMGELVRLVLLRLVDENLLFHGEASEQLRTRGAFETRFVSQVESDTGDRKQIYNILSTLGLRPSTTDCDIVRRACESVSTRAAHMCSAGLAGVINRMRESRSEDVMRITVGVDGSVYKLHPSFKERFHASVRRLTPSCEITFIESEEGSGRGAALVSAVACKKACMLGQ
In words: enzymatic glucokinase activity assay (ATP consumption, KinaseGlo luminescence). The conditions noted are these: 5 μM ATP, 5 mM Glucose, reported as bins; for pEC50: Kact = concentration that displays 50% of the maximal increase in GK activity, 60 min, room temperature, read-out: pKact. It is filed as biochemical. In outline: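 E. coli-expressed recombinant GK purified by two anion-exchange steps. Reaction in 25 mM Hepes pH 7.2, 10 mM MgCl2, 1 mM DTT, 5 μM ATP, 5 mM glucose, 2% DMSO, 60 min at room temperature. ATP consumption quantified by KinaseGlo luminescence; pKact and % ACTmax derived by non-linear curve fitting.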

Setting [1] is: calculated maximal gain in GK enzyme activity at a saturating concentration of the compound, read-out: % ACTmax.
Setting [2] is: read-out: % ACTmax, calculated maximal gain in GK enzyme activity at a saturating concentration of the compound.

pEC50: −log10 of the molar value. Read-outs that look alike come from different tables or passages of the source.

`O=C(Nc1ncc(F)s1)[C@H](CC1CCOCC1)n1ncc2c(S(=O)(=O)C3CC3)cc(O)cc21` [Compound 76, (S)-2-(4-(cyclopropylsulfonyl)-6-hydroxy-1H-indazol-1-yl)-N-(5-fluorothiazol-2-yl)-3-(tetrahydro-2H-pyran-4-yl)propanamide]: the pEC50 was at least 6.50. In addition, the Emax under setting [1] is 106 to 110%.

With `O=C(Nc1ncc(F)s1)C(CC1CCOCC1)n1ncc2c(S(=O)(=O)C3CC3)cccc21` (stereo not drawn) [Compound 66, 2-(4-(cyclopropylsulfonyl)-1H-indazol-1-yl)-N-(5-fluorothiazol-2-yl)-3-(tetrahydro-2H-pyran-4-yl)propanamide], the pEC50 is at least 6.50. The Emax under setting [1] was 101 to 105%.

`COc1ccc2nc(NC(=O)C(CC3CCOCC3)n3ccc(S(=O)(=O)C4CC4)n3)sc2n1` (stereo not drawn) [Compound 1, 2-(3-(cyclopropylsulfonyl)-1H-pyrazol-1-yl)-N-(5-methoxythiazolo[5,4-b]pyridin-2-yl)-3-(tetrahydro-2H-pyran-4-yl)propanamide]: the pEC50 is at most 4.80. Also, the Emax under setting [2] is at most 90%.

With `O=C(Nc1ncc(Cl)s1)[C@@H](CC1CCOCC1)n1ncc2c(S(=O)(=O)C3CC3)cccc21` [Compound 63, (R)-N-(5-chlorothiazol-2-yl)-2-(4-(cyclopropylsulfonyl)-1H-indazol-1-yl)-3-(tetrahydro-2H-pyran-4-yl)propanamide], the pEC50 was 4.90 to 5.40. Also, the Emax under setting [1] is at least 111%.

As to `O=C(Nc1ncc(Cl)s1)C(CC1CCOCC1)n1cc(NS(=O)(=O)C2CC2)cn1` (stereo not drawn) [Compound 9, N-(5-chlorothiazol-2-yl)-2-(4-(cyclopropanesulfonamido)-1H-pyrazol-1-yl)-3-(tetrahydro-2H-pyran-4-yl)propanamide], the pEC50 was 4.90 to 5.40. The Emax under setting [2] was at most 90%.

Consider `O=C(Nc1ncc(F)s1)[C@H](CC1CCOCC1)n1ncc2c(S(=O)(=O)C3CC3)cc(Cl)cc21` [Compound 141, (S)-2-(6-chloro-4-(cyclopropylsulfonyl)-1H-indazol-1-yl)-N-(5-fluorothiazol-2-yl)-3-(tetrahydro-2H-pyran-4-yl)propanamide], for which the pEC50 was at least 6.50. In addition, the Emax under setting [1] was 90 to 100%.

Take `O=C1CC[C@H](C[C@H](C(=O)Nc2ncc(F)s2)n2ncc3c(S(=O)(=O)C4CC4)cc(Cl)cc32)C1` [Compound 78, (R)-2-(6-chloro-4-(cyclopropylsulfonyl)-1H-indazol-1-yl)-N-(5-fluorothiazol-2-yl)-3-((R)-3-oxocyclopentyl)propanamide]: the pEC50 was 5.50 to 5.80. Moreover, the Emax under setting [1] is 90 to 100%.

Turning to `NC(=O)c1ccc(NC(=O)[C@H](CC2CCOCC2)n2ncc3c(S(=O)(=O)C4CC4)cccc32)nc1` [Compound 107, (S)-6-(2-(4-(cyclopropylsulfonyl)-1H-indazol-1-yl)-3-(tetrahydro-2H-pyran-4-yl)propanamido)nicotinamide], the pEC50 is at least 6.50. Further, under setting [2], the Emax is at least 111%.

On to `O=C(Nc1ncc(F)s1)C(CC1CCOCC1)n1cc2c(S(=O)(=O)C3CC3)cncc2n1` (stereo not drawn) [Compound 140, 2-(4-(cyclopropylsulfonyl)-2H-pyrazol[3,4-c]pyridin-2-yl)-N-(5-fluorothiazol-2-yl)-3-(tetrahydro-2H-pyran-4-yl)propanamide], for which the pEC50 was at most 4.80. The Emax under setting [1] was at most 90%.

On to `Cn1ccc(NC(=O)[C@@H](CC2CCOCC2)n2ncc3c(S(=O)(=O)C4CC4)cccc32)n1` [Compound 118], for which the pEC50 was at most 4.80. Besides, under setting [2], the Emax is at most 90%.

On to `O=C(Nc1ncc(F)s1)[C@H](CC1CCCC1)n1cc(S(=O)(=O)C2CC2)cn1` [Compound 36, (S)-3-cyclopentyl-2-(4-(cyclopropylsulfonyl)-1H-pyrazol-1-yl)-N-(5-fluorothiazol-2-yl)propanamide], for which the pEC50 was 5.50 to 5.80. Further, the Emax under setting [1] is at least 111%.

Consider `O=C(Nc1ncc(Cl)s1)[C@H](CC1CCOCC1)n1cc(S(=O)(=O)C2CC2)cn1` [Compound 42, (S)-N-(5-chlorothiazol-2-yl)-2-(4-(cyclopropylsulfonyl)-1H-pyrazol-1-yl)-3-(tetrahydro-2H-pyran-4-yl)propanamide], for which the pEC50 was 5.50 to 5.80. The Emax under setting [1] was at least 111%.

With `O=C(Nc1ncc(F)s1)[C@H](CC1CCOCC1)n1ncc2c(S(=O)(=O)C3CC3)cc(F)cc21` [Compound 123, (S)-2-(4-(cyclopropylsulfonyl)-6-fluoro-1H-indazol-1-yl)-N-(5-fluorothiazol-2-yl)-3-(tetrahydro-2H-pyran-4-yl)propanamide], the pEC50 was at least 6.50. The Emax under setting [1] is at least 111%.

On to `COc1ccc2c(cnn2[C@H](CC2CCOCC2)C(=O)Nc2cnccn2)c1S(=O)(=O)C1CC1` [Compound 93, (R)-2-(4-(cyclopropylsulfonyl)-5-methoxy-1H-indazol-1-yl)-N-(pyrazin-2-yl)-3-(tetrahydro-2H-pyran-4-yl)propanamide], for which the pEC50 was at most 4.80. The Emax under setting [1] was at most 90%.

Regarding `O=C(Nc1ncc(F)s1)[C@@H](CC1CCCC1)n1cc(S(=O)(=O)C2CC2)cn1` [Compound 35, (R)-3-cyclopentyl-2-(4-(cyclopropylsulfonyl)-1H-pyrazol-1-yl)-N-(5-fluorothiazol-2-yl)propanamide], the pEC50 was at most 4.80. In addition, the Emax under setting [1] is at most 90%.

On to `N#Cc1cnc(NC(=O)C(CC2CCOCC2)n2ncc3c(S(=O)(=O)C4CC4)cccc32)s1` (stereo not drawn) [Compound 125, N-(5-cyanothiazol-2-yl)-2-(4-(cyclopropylsulfonyl)-1H-indazol-1-yl)-3-(tetrahydro-2H-pyran-4-yl)propanamide], for which the pEC50 was 5.50 to 5.80. For the same compound, under setting [1], the Emax is at least 111%.

As for `O=C(Nc1ncc(F)s1)[C@@H](CC1CCOCC1)n1ncc2c(S(=O)(=O)C3CC3)ccnc21` [Compound 139, (R)-2-(4-(cyclopropylsulfonyl)-1H-pyrazol[3,4-b]pyridin-1-yl)-N-(5-fluorothiazol-2-yl)-3-(tetrahydro-2H-pyran-4-yl)propanamide], the pEC50 is at most 4.80. In addition, the Emax under setting [1] was 106 to 110%.

Consider `Cn1ccc(NC(=O)[C@@H](CC2CCOCC2)n2ncc3c(S(=O)(=O)C4CC4)ccnc32)n1` [Compound 99, (R)-2-(4-(cyclopropylsulfonyl)-1H-pyrazolo[3,4-b]pyridin-1-yl)-N-(1-methyl-1H-pyrazol-3-yl)-3-(tetrahydro-2H-pyran-4-yl)propanamide], for which the pEC50 was 4.90 to 5.40. The Emax under setting [1] is 90 to 100%.

Turning to `Cc1cc(S(=O)(=O)C2CC2)c2cnn(C(CC3CCOCC3)C(=O)Nc3ncc(F)s3)c2c1` (stereo not drawn) [Compound 122, 2-(4-(cyclopropylsulfonyl)-6-methyl-1H-indazol-1-yl)-N-(5-fluorothiazol-2-yl)-3-(tetrahydro-2H-pyran-4-yl)propanamide], the pEC50 was 4.90 to 5.40. Further, the Emax under setting [1] was at least 111%.

In the case of `COc1cc(S(=O)(=O)C2CC2)c2cnn([C@@H](CC3CCOCC3)C(=O)Nc3ncc(F)s3)c2c1` [Compound 128, (S)-2-(4-(cyclopropylsulfonyl)-6-methoxy-1H-indazol-1-yl)-N-(5-fluorothiazol-2-yl)-3-(tetrahydro-2H-pyran-4-yl)propanamide], the pEC50 is at least 6.50. The Emax under setting [1] is 90 to 100%.

Turning to `O=C(Nc1cnccn1)[C@H](CC1CCOCC1)n1ncc2c(S(=O)(=O)C3CC3)cccc21` [Compound 89, (S)-2-(4-(cyclopropylsulfonyl)-1H-indazol-1-yl)-N-(pyrazin-2-yl)-3-(tetrahydro-2H-pyran-4-yl)propanamide], the pEC50 is 5.50 to 5.80. Also, under setting [1], the Emax is 101 to 105%.

Regarding `Cn1ccc(NC(=O)C(CC2CCOCC2)n2ncc3c(S(=O)(=O)C4CC4)cc(OC(F)F)cc32)n1` (stereo not drawn) [Compound 12, 2-(4-(cyclopropylsulfonyl)-6-(difluoromethoxy)-1H-indazol-1-yl)-N-(1-methyl-1H-pyrazol-3-yl)-3-(tetrahydro-2H-pyran-4-yl)propanamide], the pEC50 is 5.50 to 5.80. The Emax under setting [1] is at most 90%.

For the compound `O=C(Nc1ncc(F)s1)C(CC1CCOCC1)n1ncc2c(S(=O)(=O)C3CC3)cc(OC(F)F)cc21` (stereo not drawn) [Compound 143, 2-(4-(cyclopropylsulfonyl)-6-(difluoromethoxy)-1H-indazol-1-yl)-N-(5-fluorothiazol-2-yl)-3-(tetrahydro-2H-pyran-4-yl)propanamide], the pEC50 was at least 6.50. Moreover, the Emax under setting [1] is at most 90%.

As for `O=C1CC[C@H](C[C@@H](C(=O)Nc2ncc(F)s2)n2cc(S(=O)(=O)C3CC3)cn2)C1` [Compound 54, (S)-2-(4-(cyclopropylsulfonyl)-1H-pyrazol-1-yl)-N-(5-fluorothiazol-2-yl)-3-((R)-3-oxocyclopentyl)propanamide], the pEC50 is 4.90 to 5.40. Also, the Emax under setting [1] is at most 90%.
